The values below come from patent US4512986A, “Progrestationally active steroids” (priority 1983, dated 1985).

In the assay the target is T1, Cytosol Progesterone Receptor of the Estrogen-primed Immature Rabbit Uterus (Oryctolagus cuniculus, UniProt P06186).
T1 construct: cytosol progesterone receptor of the estrogen-primed immature rabbit uterus; tissue Dutchland Laboratories, Inc., Denver, Pa (animals); host or cells: uterus cytosol of estradiol-treated immature female New Zealand White rabbits
T1 sequence (P06186 1-930): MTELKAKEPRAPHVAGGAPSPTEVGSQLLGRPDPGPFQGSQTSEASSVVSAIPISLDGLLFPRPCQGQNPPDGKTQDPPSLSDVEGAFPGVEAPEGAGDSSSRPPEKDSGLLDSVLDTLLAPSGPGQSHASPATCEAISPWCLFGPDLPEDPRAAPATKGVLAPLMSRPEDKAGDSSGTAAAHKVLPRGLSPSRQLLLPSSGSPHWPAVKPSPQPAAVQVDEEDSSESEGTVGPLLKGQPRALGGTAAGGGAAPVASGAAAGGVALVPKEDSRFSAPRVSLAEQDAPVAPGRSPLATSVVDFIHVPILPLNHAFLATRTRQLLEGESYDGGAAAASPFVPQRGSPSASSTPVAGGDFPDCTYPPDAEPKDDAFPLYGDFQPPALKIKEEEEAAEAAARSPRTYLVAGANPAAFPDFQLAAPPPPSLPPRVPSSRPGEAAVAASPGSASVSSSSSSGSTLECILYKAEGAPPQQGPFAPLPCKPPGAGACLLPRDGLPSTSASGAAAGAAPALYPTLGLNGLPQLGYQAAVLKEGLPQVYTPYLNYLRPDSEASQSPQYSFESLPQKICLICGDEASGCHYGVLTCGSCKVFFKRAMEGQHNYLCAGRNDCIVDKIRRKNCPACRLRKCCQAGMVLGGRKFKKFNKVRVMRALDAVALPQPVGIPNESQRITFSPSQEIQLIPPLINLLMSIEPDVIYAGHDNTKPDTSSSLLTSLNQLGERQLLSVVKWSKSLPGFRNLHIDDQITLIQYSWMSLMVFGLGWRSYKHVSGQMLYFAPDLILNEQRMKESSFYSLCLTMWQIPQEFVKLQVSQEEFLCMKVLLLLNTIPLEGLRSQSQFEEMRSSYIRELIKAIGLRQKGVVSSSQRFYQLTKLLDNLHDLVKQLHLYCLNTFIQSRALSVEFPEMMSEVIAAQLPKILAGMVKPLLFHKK
Put plainly: Relative binding affinity for progesterone receptor (competition with 3H-progesterone). More on the design: species or system rabbit (New Zealand White).

The structures appear in SMILES notation.

As to `C#C[C@]1(C(C)=O)CC[C@H]2[C@@H]3CCC4=CC(=O)CC[C@]4(C)[C@H]3CC[C@@]21C` [17α-Ethynylprogesterone, 17α-ethynylprogesterone], for the setting “16 to 18 hour incubation at 0° C., spurious value 11 excluded”, the “RBA, mean of assays (X±S.D.)” value is 189±55. Further, the RBA by setting is: (Assay 1, 16-18 hour incubation, progesterone = 100, 5α-dihydro-17α-ethynyl: lot 1) 156%; (Assay 2, 16-18 hour incubation, progesterone = 100, 5α-dihydro-17α-ethynyl: lot 1) 267%; (Assay 3, 16-18 hour incubation, progesterone = 100, 5α-dihydro-17α-ethynyl: lot 1) 144%; (two-hour incubation at 0° C.) 352.
